Reference: patent US5491242A, “Protein kinase C inhibitors” (Eli Lilly and Company, priority 1995, dated 1996)
Like-named read-outs stand apart in the source and are kept apart here.

Experiments:
Format in all cases: biochemical
[1] = target: PKC gamma (Homo sapiens, UniProt P05129); test: PKC Enzyme Assay, gamma; settings: Table 1
[2] = target: PKC beta II (Homo sapiens, UniProt P05771); test: PKC Enzyme Assay, beta II
Method: (§1) PKC enzymes=alpha, beta I, beta II, gamma, delta, epsilon, eta and zeta
(§2) Assay components in a total volume of 250 μL are the following:
(§3) Vesicles consisting of 120 μg/mL phosphatidylserine (Avanti Polar Lipids) and sufficient diacylglycerol (Avanti Polar Lipids) to activate the enzyme to maximum activity in 20 mM HEPES buffer (Sigma, St. Louis, Mo.), pH 7.5, 940 μM calcium chloride (Sigma, St. Louis, Mo.) for assaying the alpha, beta I, beta II and gamma enzyme only, 1 mM EGTA for all the enzymes, 10 mM magnesium chloride (Sigma, St. Louis, Mo.) and 30 μM (gamma-32P) ATP (DuPont). For all the enzymes either histone type HL (Worthington) or myelin basic protein is used as substrate. The assay is started by addition of protein kinase C enzyme incubated at 30° C. for 10 minutes and stopped by adding 0.5 mL of cold trichloroacetic acid (Amresco) followed by 100 μL of 1 mg/mL bovine serum albumin (Sigma, St. Louis, Mo.). The precipitate is collected by vacuum filtration on glass fiber filters employing a TOMTEC™ filtration system and quantified by counting in a beta scintillation counter.

[3] = target: PKC alpha (Homo sapiens, UniProt P17252); test: PKC Enzyme Assay, alpha
Method: as §1, §2, §3

[4] = target: T1, PKC zeta (Homo sapiens, UniProt Q05513); test: PKC Enzyme Assay, zeta; settings: Table 1
T1 sequence (Q05513 1-592): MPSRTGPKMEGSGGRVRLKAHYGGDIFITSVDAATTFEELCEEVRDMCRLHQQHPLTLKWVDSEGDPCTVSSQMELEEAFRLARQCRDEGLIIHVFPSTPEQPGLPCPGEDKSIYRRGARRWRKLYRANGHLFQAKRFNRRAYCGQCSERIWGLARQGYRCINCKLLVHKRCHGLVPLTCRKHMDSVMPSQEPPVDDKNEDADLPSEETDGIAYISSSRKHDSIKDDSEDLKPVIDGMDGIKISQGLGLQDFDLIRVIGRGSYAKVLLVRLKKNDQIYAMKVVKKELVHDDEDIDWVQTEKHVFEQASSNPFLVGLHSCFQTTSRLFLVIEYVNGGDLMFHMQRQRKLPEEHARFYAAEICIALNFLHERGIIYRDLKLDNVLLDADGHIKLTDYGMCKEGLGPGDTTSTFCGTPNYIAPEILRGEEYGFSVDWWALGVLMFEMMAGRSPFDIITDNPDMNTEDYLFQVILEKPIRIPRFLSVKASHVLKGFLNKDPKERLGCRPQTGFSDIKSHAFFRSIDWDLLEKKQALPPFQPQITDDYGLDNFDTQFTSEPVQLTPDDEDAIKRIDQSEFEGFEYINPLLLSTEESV
Method: as §1, §2, §3

[5] = target: PKC delta (Homo sapiens, UniProt Q05655); test: PKC Enzyme Assay, delta; settings: Table 1
[6] = target: PKC beta I (Homo sapiens, UniProt P05771); test: PKC Enzyme Assay, beta I; settings: Table 1; read-out: IC50 β1
Method: as §1, §2, §3

Sequence of PKC delta (Q05655 whole entry): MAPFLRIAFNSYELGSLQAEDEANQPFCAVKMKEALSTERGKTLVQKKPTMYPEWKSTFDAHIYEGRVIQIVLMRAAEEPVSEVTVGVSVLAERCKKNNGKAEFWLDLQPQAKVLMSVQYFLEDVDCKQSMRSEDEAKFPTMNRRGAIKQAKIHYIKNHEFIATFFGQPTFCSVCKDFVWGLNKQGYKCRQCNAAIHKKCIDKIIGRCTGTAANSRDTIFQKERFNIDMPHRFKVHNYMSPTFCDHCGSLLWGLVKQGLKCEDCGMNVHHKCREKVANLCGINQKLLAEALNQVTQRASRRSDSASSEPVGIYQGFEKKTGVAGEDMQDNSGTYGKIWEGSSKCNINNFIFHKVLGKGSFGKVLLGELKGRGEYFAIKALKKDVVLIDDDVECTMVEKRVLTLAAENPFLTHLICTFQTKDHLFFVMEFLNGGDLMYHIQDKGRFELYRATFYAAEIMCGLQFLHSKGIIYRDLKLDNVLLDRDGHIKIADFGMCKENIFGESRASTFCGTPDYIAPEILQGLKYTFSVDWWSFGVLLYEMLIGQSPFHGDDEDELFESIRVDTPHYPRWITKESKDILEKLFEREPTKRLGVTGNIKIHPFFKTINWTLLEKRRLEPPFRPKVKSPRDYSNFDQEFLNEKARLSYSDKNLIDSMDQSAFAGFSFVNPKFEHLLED
Sequence of PKC beta I (P05771 whole entry): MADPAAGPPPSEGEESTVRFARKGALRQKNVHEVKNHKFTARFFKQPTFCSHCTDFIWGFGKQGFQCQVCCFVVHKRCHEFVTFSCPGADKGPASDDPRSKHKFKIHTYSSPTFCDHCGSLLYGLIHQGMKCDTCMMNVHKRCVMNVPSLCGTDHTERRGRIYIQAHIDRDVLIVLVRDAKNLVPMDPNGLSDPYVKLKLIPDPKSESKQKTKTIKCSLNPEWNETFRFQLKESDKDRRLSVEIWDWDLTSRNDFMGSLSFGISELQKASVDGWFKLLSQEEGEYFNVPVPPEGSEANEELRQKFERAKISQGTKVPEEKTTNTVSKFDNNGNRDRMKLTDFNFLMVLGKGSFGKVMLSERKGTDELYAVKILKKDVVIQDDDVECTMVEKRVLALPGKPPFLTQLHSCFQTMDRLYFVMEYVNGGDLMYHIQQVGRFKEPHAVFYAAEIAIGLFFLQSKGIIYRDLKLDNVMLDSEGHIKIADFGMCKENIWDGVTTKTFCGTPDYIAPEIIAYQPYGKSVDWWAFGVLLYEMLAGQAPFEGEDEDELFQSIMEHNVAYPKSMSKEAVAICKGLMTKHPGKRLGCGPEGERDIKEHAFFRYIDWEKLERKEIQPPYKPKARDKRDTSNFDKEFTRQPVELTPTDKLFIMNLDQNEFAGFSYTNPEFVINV
Sequence of PKC beta II (P05771 1-673 isoform P05771-2): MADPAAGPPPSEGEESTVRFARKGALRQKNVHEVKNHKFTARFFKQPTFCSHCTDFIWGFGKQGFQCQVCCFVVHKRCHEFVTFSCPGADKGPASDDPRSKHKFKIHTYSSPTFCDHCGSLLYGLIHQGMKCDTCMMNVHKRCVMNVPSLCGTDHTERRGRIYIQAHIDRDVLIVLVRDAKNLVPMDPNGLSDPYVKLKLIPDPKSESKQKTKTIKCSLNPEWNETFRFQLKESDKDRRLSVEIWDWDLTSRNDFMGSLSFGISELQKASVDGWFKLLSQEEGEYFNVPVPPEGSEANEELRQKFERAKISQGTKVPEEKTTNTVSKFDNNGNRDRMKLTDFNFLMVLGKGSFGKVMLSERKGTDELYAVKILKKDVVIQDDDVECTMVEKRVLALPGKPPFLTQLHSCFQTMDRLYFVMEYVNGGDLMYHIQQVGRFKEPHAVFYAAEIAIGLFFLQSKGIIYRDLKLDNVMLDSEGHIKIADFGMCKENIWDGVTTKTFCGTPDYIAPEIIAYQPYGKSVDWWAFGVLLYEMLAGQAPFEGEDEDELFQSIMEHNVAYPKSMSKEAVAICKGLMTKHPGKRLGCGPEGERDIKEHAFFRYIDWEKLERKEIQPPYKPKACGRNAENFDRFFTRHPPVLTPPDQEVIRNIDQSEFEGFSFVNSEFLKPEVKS

| IC50 [1] [µM] | IC50 ([2]; Table 1, read-out: IC50 β2) [µM] | IC50 ([3]; Table 1, read-out: IC50 α) [µM] | IC50 [4] [µM] | IC50 [5] [µM] | IC50 [6] [µM] | IC50 ([2]; read-out: 50% inhibition at a concentration for the beta-2 isozyme) [µM] | IC50 ([3]; read-out: IC50 with respect to the alpha protein kinase C isozyme) [µM] | Structure (SMILES) |
| --- | --- | --- | --- | --- | --- | --- | --- | --- |
| > 100 | 2.6 | 83 | > 100 | > 100 | 8 |  |  | CC(C)(C)OC(=O)N[C@@H](Cc1ccccc1)C(=O)n1cc(C2=C(c3cn(C(=O)[C@H](Cc4ccccc4)NC(=O)OC(C)(C)C)c4ccccc34)C(=O)NC2=O)c2ccccc21 [Example 3, 3,4-Bis[(1-N-^t BOC)-phenylalanine-3-indolyl]-1H-pyrrol-2,5-dione] |
| 19 |  |  | 100 | 4.6 | 0.26 | 0.031 | 1.4 | CC(C)(C)OC(=O)NCC(=O)n1cc(C2=C(c3cn(CCCN=[N+]=[N-])c4ccccc34)C(=O)NC2=O)c2ccccc21 [Example 1, 3-[1-(3-azidopropyl)-3-indolyl]-4-[(1-N-^t BOC)-glycine-3-indolyl]-1H-pyrrol-2,5-dione] |
